Source: patent US20020082448A1, “Aminoguanidine carboxylates for the treatment of non-insulin-dependent diabetes mellitus” (The Upjohn Company, priority 1999, published 2002)
Read-outs that look alike come from different tables or passages of the source.

What was measured:
[1] = target: human serum albumin (Homo sapiens, UniProt P02768); test: Non-enzymatic glycosylation of human serum albumin, [14C]-glucose incorporation; assay type: biochemical; settings: for non-enzymatic glycosylation of human serum albumin in vitro: Table 8 assay; for % [14C-glucose] Incorporated: test compound 19.1 mM, 100 mM [14C]-D-glucose, human serum albumin, 37° C., 8 days, control 1.50
[2] = cited from earlier work
[3] = test system: proteins; settings: in vitro; cited from earlier work
[4] = test system: advanced glycosylation endproducts; settings: in vivo; cited from earlier work
[5] = test system: rats; settings: cited from earlier work; for effect on hyperglycemia: chronic oral
[6] = test system: KKAy mice; test: Reduction of non-fasting blood glucose in KKAy mice, compound admixed in chow; assay type: in vivo, mouse; settings: for % Change Blood Glucose: Day 3 vs Day-1
Source text: (§1) KKAy mice are rodent models of NIDDM and obesity (Chang, Wyse, Copeland, Peterson, and Ledbetter, 1986). A pre-treatment blood sample was obtained from the retro-orbital sinus and the mice arranged in groups of 6 so that the mean pre-treatment blood glucose level was the same on average in all groups. […] Control mice received unsupplemented chow. On Day 0, the mice were weighed and provided control chow or chow supplemented with test compounds. After 3 days of consuming control chow or chow supplemented with test compounds, a blood sample was obtained for determination of the glucose concentration and the animals were weighed for determination of weight loss. Food consumption was measured by weighing the food provided at the beginning of the study and the food residue at the end of the study. Food consumption was calculated by subtracting the weight of the residue from the weight of the food provided. […] Blood glucose data are expressed as the average blood glucose concentration in the test group divided by the average blood glucose level in the control group (treatment/control or T/C). Compounds resulting in T/C values equal to or less than 0.90 are considered to be active anti-hyperglycemic agents. Weigh loss data are expressed as percent change in body weight. Compounds resulting in a decrease of 1% or more less than control in body weight over three days are considered to be active anti-obesity agents.

[7] = Body weight change in KKAy mice, compound admixed in chow; assay type: in vivo, mouse; settings: for % Change Body Weight: Day 3 vs Day-1
Source text: as §1, with “provided. Drug intake was calculated by multiplying food consumption by 0.5%.” for “provided.”

[8] = test system: C57BL mice; test: Intraperitoneal glucose tolerance in non-diabetic C57BL mice; assay type: in vivo, mouse; settings: for Blood Glucose: C57BL mice, 100 mg/kg oral gavage
[9] = test system: KKAy mice; test: Intraperitoneal glucose tolerance in diabetic KKAy mice; assay type: in vivo, mouse; settings: for Blood Glucose: KKAy mice, 100 mg/kg oral gavage
[10] = cited from earlier work; remark: listed apart in the source
[11] = cited from earlier work; remark: listed apart in the source
[12] = test system: erythrocyte plasma membranes; settings: incubated with glucose in vitro, cited from earlier work
[13] = test system: rats; settings: cited from earlier work
[14] = test system: mice; settings: cited from earlier work; for effect on hyperglycemia / effect on blood glucose concentration: chronic oral; for effect on blood glucose concentration: 250 mg/kg/day
[15] = test system: mice; settings: cited from earlier work
[16] = normal or alloxan-diabetic rats
[17] = 0.03% in chow (approx. 30 mg/kg/day)
[18] = 0.06% in chow (approx. 60 mg/kg/day)
[19] = 0.10% in chow (approx. 100 mg/kg/day)
[20] = 0.2% in chow (approx. 200 mg/kg/day)
[21] = 0.3% in chow (approx. 300 mg/kg/day)
[22] = 0.4% in chow (approx. 400 mg/kg/day)
[23] = 30 min after 2 g/kg glucose I.P.
[24] = 60 min after 2 g/kg glucose I.P.
[25] = 90 min after 2 g/kg glucose I.P.
[26] = fasted 16-17 h, Time 0 (before 2 g/kg glucose I.P.)
[27] = 0.5% in chow (approx. 500 mg/kg/day)

Chain of human serum albumin (P02768 25-609): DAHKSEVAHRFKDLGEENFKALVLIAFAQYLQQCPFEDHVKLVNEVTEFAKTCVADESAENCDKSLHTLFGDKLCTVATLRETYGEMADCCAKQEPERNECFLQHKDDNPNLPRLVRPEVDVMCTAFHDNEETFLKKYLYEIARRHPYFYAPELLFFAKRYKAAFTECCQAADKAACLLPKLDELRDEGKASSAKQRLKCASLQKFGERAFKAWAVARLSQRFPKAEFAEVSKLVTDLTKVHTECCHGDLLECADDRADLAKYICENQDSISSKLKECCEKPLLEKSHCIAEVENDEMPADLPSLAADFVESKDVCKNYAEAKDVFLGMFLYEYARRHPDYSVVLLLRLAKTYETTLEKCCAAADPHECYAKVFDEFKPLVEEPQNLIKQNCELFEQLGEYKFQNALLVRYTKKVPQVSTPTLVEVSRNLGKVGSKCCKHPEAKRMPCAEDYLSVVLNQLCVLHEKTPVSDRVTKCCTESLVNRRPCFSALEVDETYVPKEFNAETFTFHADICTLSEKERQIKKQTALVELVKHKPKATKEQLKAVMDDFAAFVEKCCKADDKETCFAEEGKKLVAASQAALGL

With `Cl.N=C(N)NNCC(=O)O` [[2-(aminoiminomethyl)hydrazino]-, monohydrochloride acetic acid] as the compound, how does the “non-enzymatic glycosylation of human serum albumin in vitro” value (shortened to “non-enzymatic glycosylation … in vitro”) [1] read?
The value was “reduced”.

And the “% [14C-glucose] Incorporated” value [1]?
The value was 1.29 (P < 0.10 vs. Control) %.

What does the source list for `N/N=C(\N)NN` [Diaminoguanidine]?
effect on body weight [2, 16]: does not affect; non-enzymatic glycosylation of proteins [3]: inhibit; formation of advanced glycosylation endproducts [4]: inhibit; effect on blood glucose level [5, 16]: no effect

Which “effect on blood glucose level” value ([5]; rats, acute administration, 132 mg/kg) does the source give for `CCCCNC(=N)NC(=N)N` [buformin] here?
The value was “did not affect”.

With `N=C(N)NN` [Aminoguanidine] as the compound, how does the “effect on body weight” value ([2]; human and rats (Baylin et al.)) read?
The value was “increase in body weight”.

What about the “effect on body weight” value ([2]; normal or diabetic rats) of the same compound?
The value was “no effect”.

What about the “non-enzymatic glycosylation … in vitro” value [1] of the same compound?
Its value is “effective”.

What about the “% [14C-glucose] Incorporated” value [1] of the same compound?
Its value is 0.96 (P < 0.05 vs. Control) %.

What about the “non-enzymatic glycosylation of proteins” value [3] of the same compound?
Its value is “inhibit”.

What about the “formation of advanced glycosylation endproducts” value [4] of the same compound?
The value was “inhibit”.

What about the “effect on blood glucose level” value ([5]; normal rodents or rats made diabetic by alloxan or streptozotocin) of the same compound?
The value was “no effect”.

What does the source list for `NNC(=NCC(=O)O)NN` [N-(dihydrazinomethylene)-glycine]?
dose for a similar (25%) reduction in the blood glucose level [6]: 30 to 60 mg/kg/day; dose required to reduce the blood glucose level by 20% [6]: 30 mg/kg/day; % Change Blood Glucose [6, 17]: −13.5 ± 10.5%; % Change Blood Glucose [6, 18]: −34.9 ± 17.1 %; decrease in the blood glucose level ([6]; 60 mg/kg/day, 4 days): 35%; % Change Blood Glucose [6, 19]: −45.2 ± 6.4 %; % Change Blood Glucose [6, 20]: −69.9 ± 3.2 ¶ %; % Change Blood Glucose [6, 21]: −70.4 ± 1.5 ¶ %; % Change Blood Glucose [6, 22]: −70.3 ± 3.9 ¶ %; % Change Body Weight [7, 17]: −0.92 ± 0.35%; % Change Body Weight [7, 18]: −1.51 ± 2.11%; % Change Body Weight [7, 19]: −4.04 ± 0.76 %; decrease in the body weight ([7]; 100 mg/kg/day, 4 days): 4%; % Change Body Weight [7, 20]: −8.22 ± 1.05 %; % Change Body Weight [7, 21]: −9.94 ± 1.62 ¶ %; % Change Body Weight [7, 22]: −10.3 ± 0.97 ¶ %; non-enzymatic glycosylation of human serum albumin in vitro [1]: reduced; % [14C-glucose] Incorporated [1]: 0.81 (P < 0.05 vs. Control) %; Blood Glucose [8, 23]: 174 ± 17 mg/dL; Blood Glucose [8, 24]: 153 ± 7 mg/dL; Blood Glucose [8, 25]: 161 ± 19 mg/dL; Blood Glucose [8, 26]: 114 ± 9 mg/dL; fasting blood glucose concentration ([8]; normal C57BL mice, 100 mg/kg): decreased; glucose tolerance ([8]; normal C57BL mice, 100 mg/kg): improved glucose tolerance; Blood Glucose [9, 23]: 383 ± 38 mg/dL; Blood Glucose [9, 24]: 396 ± 63 mg/dL; Blood Glucose [9, 25]: 392 ± 67 mg/dL; Blood Glucose [9, 26]: 115 ± 16 mg/dL; glucose tolerance ([9]; diabetic KKAy mice, 100 mg/kg): improved glucose tolerance

For `CN(C)C(=N)N=C(N)N` [Metformin], which “effect on body weight” value ([10]; non-insulin dependent diabetic patients treated for one year (Bailey)) is on record?
The value was “cause weight loss”.

What about the “effect on body weight” value ([10]; obese non-insulin dependent diabetic patients, similar length of time (Multi-centre Study)) of the same compound?
Its value is “no significant effect”.

What about the “effect on body weight” value ([11]; KKAy mice, 1700 mg/kg/day, not at lower doses) of the same compound?
Its value is “statistically significant weight loss”.

What about the “effect on body weight” value ([11]; diabetic ob/ob mice, 240 mg/kg/day) of the same compound?
Its value is “did not cause weight loss”.

What about the “effect on body weight” value ([11]; streptozotocin-diabetic mice, 60 mg/kg/day) of the same compound?
The value was “did not cause weight loss”.

And the “non-enzymatic glycosylation of erythrocyte plasma membranes” value ([12]; 0.5 and 5 micromoles per liter)?
Its value is “inhibit non-enzymatic glycosylation”.

And the “non-enzymatic glycosylation of erythrocyte plasma membranes” value ([12]; 50 and 100 micromoles per liter)?
Its value is “reverse effect”.

What about the glucose tolerance ([13]; normal rats, 750 mg/kg) of the same compound?
The glucose tolerance was “not affect glucose tolerance”.

And the oral glucose tolerance ([13]; streptozotocin-diabetic rats, 250 mg/kg)?
The oral glucose tolerance was “oral glucose tolerance was increased”.

What about the effect on hyperglycemia ([14]; DBM mice, 400 mg/kg/day) of the same compound?
The effect on hyperglycemia was “reduces hyperglycemia”.

And the “dose required to reduce the blood glucose level by 25%” value ([14]; KKAy mice (Meglasson et al.))?
The value was 300 mg/kg/day.

What about the effect on hyperglycemia ([14]; KKAy mice, 300 mg/kg/day or more) of the same compound?
The effect on hyperglycemia was “reduces hyperglycemia”.

And the “effect on blood glucose concentration” value ([14]; diabetic ob/ob mice)?
Its value is “did not affect”.

And the “effect on blood glucose concentration” value ([14]; normal mice)?
Its value is “did not affect”.

And the “effect on blood glucose concentration” value ([14]; streptozotocin-diabetic mice)?
Its value is “did not affect”.

What about the glucose tolerance ([15]; normal mice, 50 mg/kg) of the same compound?
The glucose tolerance was “not affect glucose tolerance”.

What about the oral glucose tolerance ([15]; normal mice, 250 mg/kg) of the same compound?
The oral glucose tolerance was “oral glucose tolerance was increased”.

And the effect on hyperglycemia ([5]; Zucker fa/fa rats, 350 mg/kg/day)?
Its effect on hyperglycemia is “reduces hyperglycemia”.

What about the effect on hyperglycemia ([5]; neonatal streptozotocin-diabetic rats, 100 mg/kg/day) of the same compound?
Its effect on hyperglycemia is “reduces hyperglycemia”.

What about the “effect on blood glucose level” value ([5]; rats, acute administration, 264 mg/kg) of the same compound?
Its value is “did not affect”.

With `N=C(N)NCCC(=O)O` [3-Guanidinopropionic acid] as the compound, how does the “dose required to reduce the blood glucose level by 20%” value [6] read?
The value was 130 mg/kg/day.

And the “% Change Blood Glucose” value [6, 27]?
The value was −38.4 ± 4.4 %.

And the “% Change Body Weight” value [7, 27]?
Its value is −5.4 ± 0.81 %.

What about the “non-enzymatic glycosylation … in vitro” value [1] of the same compound?
The value was “no effect”.

What about the “% [14C-glucose] Incorporated” value [1] of the same compound?
The value was 1.52%.

And the glucose tolerance ([15]; diabetic KKAy mice, 1% admixture in chow, approximately 1000 mg/kg/day)?
The glucose tolerance was “improves glucose tolerance”.
